Reference: patent publication US7671181B2, “Polynucleotides encoding coccidian parasite casein kinase I, a chemotherapeutic target for antiprotozoal agents” (Merck Sharp & Dohme Corp., priority 2004, dated 2010)

Target: TgCKIα (Toxoplasma gondii, UniProt Q6QNM1)
Test: Casein kinase assay, TgCKIα (recombinant FLAGTgCKIα or partially purified native)
Assay type: biochemical
Set-up: Km(app), native TgCKIα; other: substrate titration, 2 μM ATP; IC50, nativeTgCKIα; other: partially purified native enzyme from Toxoplasma tachyzoites; sensitivity of native TgCKIα phosphopeptide kinase activity (HiTrapQ fractions 5-9); other: 0.2 μM hymenialdisine or 1
Settings: 0.2 μM hymenialdisine or 1 μM purvalanol B
Procedure: Protein kinase assays—Casein kinase activity was assayed essentially as described (Donald, R. G. K. et al., 2002, supra) using 96-well phosphocellulose plates (MAPH-NOB, Millipore; Billerica, Mass.) to capture ^33P-phosphorylated peptide or casein substrates. Kinase reactions were carried out in 40 μl volumes containing 25 mM Hepes, pH 7.4, 10 mM MgCl2, 20 mM β-glycerophosphate, 1 mM DTT, 250 μM substrate, 1 mg/mL BSA, 2 μM ATP, and 0.01 μM [γ-^33P]ATP (Perkin-Elmer, 3000 Ci/mmol). […] Casein (5% solution), partially dephosphorylated α-casein and β-casein were obtained from Sigma.
A variety of commercially available peptide substrates were evaluated. From Calbiochem (San Diego, Calif.): CKI substrate (RRKDLHDDEEDEAMSITA; SEQ ID NO:13); CKII substrate (RRADDSDDDDD; SEQ ID NO:14); Syntide-2 substrate (PLARTLSVAGLPGKK; SEQ ID NO:15); CaM kinase II substrate (281-291) (MHKNETVECLK; SEQ ID NO:16). From Promega: CKI substrate (DDDEESITRR; SEQ ID NO:17) and kemptide (LRRASLG; SEQ ID NO:18). From New England Biolabs (Beverly, Mass.): CKI phosphopeptide substrate (KRRRALS(p)VASLPGL; SEQ ID NO:19), and CKII substrate (RRREEETEEE; SEQ ID NO:20). PKG assays were performed with kemptide as substrate and 10 μM cGMP. CDPK was assayed with Syntide-2 substrate and in the presence of 100 μM CaCl2.
Purification of recombinant CKI enzymes—E. coli strain BL21 Origami™ (Novagen) was transformed with FLAGTgCKIα and FLAGTgCKIβ expression vectors, and colonies were expanded into 250 mL LB cultures grown at 37° C. Expression was induced with 1 mM IPTG once cultures had reached an OD600nm of 0.3-0.5, and the transformed bacteria were harvested 4-6 hours later. Cell pellets were resuspended in 15 mL of lysis buffer containing protease inhibitors and lysates prepared as described by the supplier (Bugbuster™ reagents, Novagen). The concentration of NaCl in the lysate was adjusted to 0.5 M, and 0.5 mL of FLAG-agarose beads were added (Sigma). The mixture was allowed to rock in a Nutator mixer (Becton-Dickinson; San Jose, Calif.) for 2 hours at 4° C. The slurry was then poured into an empty column and the matrix washed with 50 mL of wash buffer (50 mM Tris-HCl, pH 7.4, 0.5M NaCl, 10% glycerol, 1 mM DTT, 1 mM EDTA). […] Protein was measured with a micro-BCA reagent (Pierce) following a TCA-sodium deoxycholate step to remove residual FLAG peptide (Brown et al., 1989, Anal. Biochem. 180:136-139). […]
Preparations of FLAGTgCKIα and FLAGTgCKIβ were purified further on a SMART system FPLC 0.1 mL MonoQ anion exchange column (Pharmacia; New York, N.Y.) equilibrated in buffer A (50 mM Hepes, pH 7.4, 10% glycerol, 1 mM DTT) at room temperature. […] A linear salt gradient was applied (0-500 mM in 3 mL at 100 μl/min) and 100 μl fractions were collected and analyzed by SDS-PAGE and for CKI activity. […]

Sequence of TgCKIα (Q6QNM1 whole entry, looked up): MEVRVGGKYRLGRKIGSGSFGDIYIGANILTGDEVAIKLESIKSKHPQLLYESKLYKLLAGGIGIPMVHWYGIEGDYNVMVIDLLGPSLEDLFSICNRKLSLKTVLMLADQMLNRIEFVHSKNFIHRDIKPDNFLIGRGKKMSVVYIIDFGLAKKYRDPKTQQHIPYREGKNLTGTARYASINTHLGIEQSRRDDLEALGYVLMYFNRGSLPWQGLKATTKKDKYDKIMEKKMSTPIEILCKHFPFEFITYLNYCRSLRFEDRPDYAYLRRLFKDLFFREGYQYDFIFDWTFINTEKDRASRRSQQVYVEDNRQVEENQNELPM

## CC(C)[C@H](CO)Nc1nc(Nc2ccc(C(=O)O)c(Cl)c2)c2ncn(C(C)C)c2n1 [purvalanol B]
  sensitivity of native TgCKIα phosphopeptide kinase activity (HiTrapQ fractions 5-9): sensitive
